This assay is filed under the species Homo sapiens. The experiment in a line: Inhibition of HA-tagged YAP/Gal4-tagged TEAD (unknown origin) interaction at 2.5 uM by Coimmunoprecipitation assay.

One may read the inhibition as the share of the control response that was lost under treatment. Higher therefore signals a response far below the control. Sequence VERTEPORFIN showed an inhibition greater than 50%.

Values taken from ChEMBL document CHEMBL3580621, “The Hippo Pathway and YAP/TAZ-TEAD Protein-Protein Interaction as Targets for Regenerative Medicine and Cancer Treatment” (J Med Chem, 2015).
